Laboratory results from ChEMBL document CHEMBL1201862, “PubChem BioAssay data set” (2004).
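1) Cells in 96-well plates. 2) Compound, 48 h, 5 concentrations. 3) Linear interpolation between surrounding doses. 4) Unreached endpoint = highest concentration. Here, GI50 denotes the concentration required for 50% inhibition of growth.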 Activity calls are given as the source filed them. Rule as the data show it: active = GI50 up to about 1.1 µM and inactive = higher.

Columns and labels:
Assay in all cases: NCI anticancer screen, dose series, 48 h
HT-29 = tested on: HT-29
LOX IMVI = tested on: LOX IMVI
SNB-19 = tested on: SNB-19
TK-10 = tested on: TK-10
SW-620 = tested on: SW-620
RXF 393 = tested on: RXF 393
CCRF-CEM = tested on: CCRF-CEM
HOP-62 = tested on: HOP-62
UO-31 = tested on: UO-31
OVCAR-8 = tested on: OVCAR-8
MOLT-4 = tested on: MOLT-4
NCI-H23 = tested on: NCI-H23
A498 = tested on: A498
U-251 = tested on: U-251
T47D = tested on: T47D
ACHN = tested on: ACHN
EKVX = tested on: EKVX
UACC-257 = tested on: UACC-257
MDA-MB-435 = tested on: MDA-MB-435
NCI-H460 = tested on: NCI-H460

Measured: GI50

O=C(O)C1CCCCC1C(=O)Nc1nc2ccccc2[nH]1 (stereo not given)
inactive: HT-29 > 100 µM | LOX IMVI > 100 µM | SNB-19 > 100 µM | TK-10 > 100 µM | SW-620 > 100 µM | RXF 393 > 100 µM | CCRF-CEM > 100 µM | HOP-62 > 100 µM | UO-31 > 100 µM | OVCAR-8 > 100 µM | MOLT-4 39.5 µM | NCI-H23 > 100 µM | A498 > 100 µM | U-251 > 100 µM | T47D > 100 µM | ACHN > 100 µM | EKVX 63 µM | UACC-257 > 100 µM | MDA-MB-435 > 100 µM | NCI-H460 > 100 µM

CC(=O)OC12c3ccccc3-c3ccccc3C1C(C(=O)O)C2C(=O)O (stereo not given)
inactive: HT-29 > 10 µM | LOX IMVI > 10 µM | SNB-19 > 10 µM | TK-10 > 10 µM | SW-620 > 10 µM | RXF 393 > 10 µM | CCRF-CEM > 10 µM | HOP-62 > 10 µM | UO-31 > 10 µM | OVCAR-8 > 10 µM | MOLT-4 > 10 µM | NCI-H23 > 10 µM | A498 > 10 µM | U-251 > 10 µM | T47D > 10 µM | ACHN > 10 µM | EKVX > 10 µM | UACC-257 > 10 µM | MDA-MB-435 3.52 µM | NCI-H460 > 10 µM

O=C1/C(=C\c2cccc(Oc3ccccc3)c2)S(=O)(=O)C(c2ccccc2)N1c1ccccc1Cl (stereo not given)
inactive: HT-29 22.6 µM | LOX IMVI 29.2 µM | SNB-19 16.1 µM | TK-10 77.1 µM | SW-620 30.2 µM | RXF 393 29 µM | CCRF-CEM 19.1 µM | HOP-62 26.4 µM | UO-31 19.7 µM | OVCAR-8 23.4 µM | MOLT-4 15.1 µM | NCI-H23 24.4 µM | A498 45.6 µM | U-251 27.9 µM | T47D 16.3 µM | ACHN 27.8 µM | EKVX 22.3 µM | UACC-257 28.6 µM | MDA-MB-435 27.7 µM | NCI-H460 32.6 µM

Cn1cnc2c(NCc3ccccc3)nc(NCCO)nc21 [OLOMOUCINE]
inactive: HT-29 71.4 µM | LOX IMVI 24 µM | SNB-19 48.6 µM | TK-10 63.8 µM | SW-620 43.5 µM | RXF 393 67 µM | CCRF-CEM 54.6 µM | HOP-62 29.3 µM | UO-31 31.4 µM | OVCAR-8 66.2 µM | MOLT-4 70.1 µM | NCI-H23 59.6 µM | A498 103 µM | U-251 64.4 µM | T47D 50.5 µM | ACHN 35.9 µM | EKVX 94.4 µM | UACC-257 > 95.3 µM | MDA-MB-435 78.7 µM | NCI-H460 104 µM

C/C(=C/CC[C@](C)(OC1OC(CO)C(O)C(O)C1O)[C@H]1CC[C@]2(C)[C@@H]1CC[C@@H]1[C@@]3(C)CC[C@H](O)C(C)(C)[C@@H]3C[C@H](O)[C@]12CO)CO (stereo not given in full)
inactive: HT-29 > 100 µM | LOX IMVI > 100 µM | SNB-19 > 100 µM | TK-10 > 100 µM | SW-620 > 100 µM | RXF 393 > 100 µM | CCRF-CEM > 100 µM | HOP-62 > 100 µM | UO-31 > 100 µM | OVCAR-8 > 100 µM | MOLT-4 > 100 µM | NCI-H23 > 100 µM | A498 > 100 µM | U-251 > 100 µM | T47D > 100 µM | ACHN > 100 µM | EKVX > 100 µM | UACC-257 > 100 µM | MDA-MB-435 > 100 µM | NCI-H460 > 100 µM

O=C1O/C(=C\c2ccc(O)c(Br)c2)C(c2ccc(O)c(Cl)c2)=C1Br
inactive: HT-29 12.9 µM | LOX IMVI 44.6 µM | SNB-19 18.3 µM | TK-10 25.2 µM | SW-620 17.3 µM | RXF 393 17.2 µM | CCRF-CEM 12.3 µM | HOP-62 19.9 µM | UO-31 25.7 µM | OVCAR-8 23 µM | MOLT-4 16.6 µM | NCI-H23 17.3 µM | A498 19.5 µM | U-251 13.5 µM | T47D 19 µM | ACHN 15.2 µM | EKVX 21.2 µM | UACC-257 15.8 µM | MDA-MB-435 16 µM | NCI-H460 17.1 µM

Fc1nc(Sc2ncnc3nc[nH]c23)nc(-c2c3ccccc3c3sc4ccccc4n23)n1
inactive: HT-29 > 100 µM | LOX IMVI 80 µM | SNB-19 > 100 µM | TK-10 > 100 µM | SW-620 > 100 µM | RXF 393 > 100 µM | CCRF-CEM 40.7 µM | HOP-62 > 100 µM | UO-31 > 100 µM | OVCAR-8 > 100 µM | MOLT-4 77.8 µM | NCI-H23 > 100 µM | A498 > 100 µM | U-251 > 100 µM | T47D > 100 µM | ACHN > 100 µM | EKVX > 100 µM | UACC-257 > 100 µM | MDA-MB-435 > 100 µM | NCI-H460 > 100 µM
